Earlier results on 2 molecules are cited in publication PMC9050719 (RSC Advances, 2020).

The test system of data set [1] is mice.
For data set [2] the following is noted: prodrug of MPA.

Regarding `COc1c(C)c2c(c(O)c1C/C=C(\C)CCC(=O)O)C(=O)OC2` [MPA, Mycophenolic acid], the “Administered dose giving profound toxicity in mice” value in data set [1] was “over 1000 mg per kg per day”.
As to `COc1c(C)c2c(c(O)c1C/C=C(\C)CCC(=O)OCCN1CCOCC1)C(=O)OC2` [Mycophenolate mofetil], the Bioavailability in data set [2] was approximately 90%.
